The record followed here is patent US8273754B2, “Substituted 1H-pyrazolo[3,4-D]pyrimidine-6-amine compounds” (ArQule, Inc., priority 2008, dated 2012).

In this assay the test system is cancer cells. As to the kind of experiment: MTS cell growth inhibition assay (72 hours). It is filed as cell-based. The gist of the method: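 Cells in DMEM with 1% FBS, seeded 18 h, then compound-treated 72 h at 37 °C. Viability by MTS/PMS for 4 h, formazan absorbance at 492 nm; IC50 taken as concentration giving 50% absorbance drop, activity banded by percent inhibition.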

[1] abbreviates: Homo sapiens, DLD-1, 72 h, DLD-1 cells, read-out: DLD-1 MTS 72 hr at 10 μM.
The mark [2] stands for this setting: Homo sapiens, KATO III, 72 h, KATO III cells, read-out: KATO III MTS 72 hr at 10 μM.
The mark [3] stands for this setting: Homo sapiens, MDA-MB-231, 72 h, MDA-MB-231 cells, read-out: MDA-MB-231 MTS 72 hr at 10 μM.
Where [4] appears, read: Homo sapiens, NCI-H1299, 72 h, NCI-H1299 cells, read-out: NCI-H1299 MTS 72 hr at 10 μM.
The mark [5] stands for this setting: PaCa-2, 72 h, PACA-2 cells, read-out: PACA-2 MTS 72 hr at 10 μM.

Where two headings read alike, the source gives them in different places.

`Nc1nc(NC2Cc3ccccc3N(Cc3ccccc3OCc3c(Cl)cccc3Cl)C2)c2cn[nH]c2n1` (centres unmarked) [Compound 152, N4-(1-{2-[(2,6-dichlorobenzyl)oxy]benzyl}-1,2,3,4-tetrahydroquinolin-3-yl)-1H-pyrazolo[3,4-d]pyrimidine-4,6-diamine]: the inhibition at 10 µM by setting is: under setting [1], greater than 79%; under setting [2], 50 to 79%; under setting [3], 50 to 79%; under setting [4], less than 50%; under setting [5], less than 50%.
Take `COc1ccc(Oc2ccccc2CN2CC(Nc3nc(N)nc4[nH]ncc34)Cc3ccccc32)cc1` (centres unmarked) [Compound 153, N4-{1-[2-(4-methoxyphenoxy)benzyl]-1,2,3,4-tetrahydroquinolin-3-yl}-1H-pyrazolo[3,4-d]pyrimidine-4,6-diamine]: the inhibition at 10 µM runs as follows: under setting [1], 50 to 79%; under setting [2], 50 to 79%; under setting [3], less than 50%; under setting [4], less than 50%; under setting [5], less than 50%.
With `Nc1nc(NC2Cc3ccccc3N(Cc3cccc(Oc4cc(Cl)cc(Cl)c4)c3)C2)c2cn[nH]c2n1` (centres unmarked) [Compound 154, N4-{1-[3-(3,5-dichlorophenoxy)benzyl]-1,2,3,4-tetrahydroquinolin-3-yl}-1H-pyrazolo[3,4-d]pyrimidine-4,6-diamine], the inhibition at 10 µM is greater than 79% under setting [1]; greater than 79% under setting [2]; 50 to 79% under setting [3]; 50 to 79% under setting [4]; 50 to 79% under setting [5].
Take `Nc1nc(NC2Cc3ccccc3N(Cc3ccc(OCc4ccccc4)cc3)C2)c2cn[nH]c2n1` (centres unmarked) [Compound 155, N4-{1-[4-(benzyloxy)benzyl]-1,2,3,4-tetrahydroquinolin-3-yl}-1H-pyrazolo[3,4-d]pyrimidine-4,6-diamine]: the inhibition at 10 µM runs as follows: under setting [1], greater than 79%; under setting [2], greater than 79%; under setting [3], greater than 79%; under setting [4], greater than 79%; under setting [5], greater than 79%.
For the compound `COc1cc(CN2CC(Nc3nc(N)nc4[nH]ncc34)Cc3ccccc32)ccc1OCc1ccccc1` (centres unmarked) [Compound 156, N4-{1-[4-(benzyloxy)-3-methoxybenzyl]-1,2,3,4-tetrahydroquinolin-3-yl}-1H-pyrazolo[3,4-d]pyrimidine-4,6-diamine], the inhibition at 10 µM is, setting by setting: under setting [1], 50 to 79%; under setting [2], less than 50%; under setting [3], less than 50%; under setting [4], less than 50%; under setting [5], less than 50%.
As for `COc1ccc(-n2ncc(CN3CC(Nc4nc(N)nc5[nH]ncc45)Cc4ccccc43)c2C)cc1` (centres unmarked) [Compound 157, N4-(1-{[1-(4-methoxyphenyl)-5-methyl-1H-pyrazol-4-yl]methyl}-1,2,3,4-tetrahydroquinolin-3-yl)-1H-pyrazolo[3,4-d]pyrimidine-4,6-diamine], the inhibition at 10 µM is, setting by setting: under setting [1], less than 50%; under setting [2], 50 to 79%; under setting [3], less than 50%; under setting [4], less than 50%; under setting [5], less than 50%.
On to `Cc1ccc(Oc2ccccc2CN2CC(Nc3nc(N)nc4[nH]ncc34)Cc3ccccc32)cc1` (centres unmarked) [Compound 158, N4-{1-[2-(4-methylphenoxy)benzyl]-1,2,3,4-tetrahydroquinolin-3-yl}-1H-pyrazolo[3,4-d]pyrimidine-4,6-diamine], for which the inhibition at 10 µM was greater than 79% under setting [1]; greater than 79% under setting [2]; 50 to 79% under setting [3]; less than 50% under setting [4]; greater than 79% under setting [5].
As to `Nc1nc(NC2Cc3ccccc3N(Cc3ccccc3-c3ccc(F)cc3)C2)c2cn[nH]c2n1` (centres unmarked) [Compound 159, N4-{1-[(4′-fluorobiphenyl-2-yl)methyl]-1,2,3,4-tetrahydroquinolin-3-yl}-1H-pyrazolo[3,4-d]pyrimidine-4,6-diamine], the inhibition at 10 µM under setting [1] was less than 50%; the inhibition at 10 µM under setting [2] is less than 50%; the inhibition at 10 µM under setting [3] is less than 50%; the inhibition at 10 µM under setting [4] is less than 50%; the inhibition at 10 µM under setting [5] is less than 50%.
As to `COc1ccc(CN2CC(Nc3nc(N)nc4[nH]ncc34)Cc3ccccc32)cc1OCc1ccccc1` (centres unmarked) [Compound 160, N4-{1-[3-(benzyloxy)-4-methoxybenzyl]-1,2,3,4-tetrahydroquinolin-3-yl}-1H-pyrazolo[3,4-d]pyrimidine-4,6-diamine], the inhibition at 10 µM reads like this: under setting [1], greater than 79%; under setting [2], greater than 79%; under setting [3], less than 50%; under setting [4], less than 50%; under setting [5], greater than 79%.
As to `Cc1ccccc1-n1ncc(CN2CC(Nc3nc(N)nc4[nH]ncc34)Cc3ccccc32)c1C` (centres unmarked) [Compound 161, N4-(1-{[5-methyl-1-(2-methylphenyl)-1H-pyrazol-4-yl]methyl}-1,2,3,4-tetrahydroquinolin-3-yl)-1H-pyrazolo[3,4-d]pyrimidine-4,6-diamine], the inhibition at 10 µM was less than 50% under setting [1]; less than 50% under setting [2]; less than 50% under setting [3]; less than 50% under setting [4]; less than 50% under setting [5].
With `COc1ccc(CN2CC(Nc3nc(N)nc4[nH]ncc34)Cc3ccccc32)cc1OC1CCCC1` (centres unmarked) [Compound 162, N4-{1-[3-(cyclopentyloxy)-4-methoxybenzyl]-1,2,3,4-tetrahydroquinolin-3-yl}-1H-pyrazolo[3,4-d]pyrimidine-4,6-diamine], the inhibition at 10 µM reads like this: under setting [1], less than 50%; under setting [2], less than 50%; under setting [3], less than 50%; under setting [4], less than 50%; under setting [5], less than 50%.
For `Nc1nc(NC2Cc3ccccc3N(Cc3cc(Cl)ccc3C(F)(F)F)C2)c2cn[nH]c2n1` (centres unmarked) [Compound 163, N4-{1-[5-chloro-2-(trifluoromethyl)benzyl]-1,2,3,4-tetrahydroquinolin-3-yl}-1H-pyrazolo[3,4-d]pyrimidine-4,6-diamine], the inhibition at 10 µM is greater than 79% under setting [1]; greater than 79% under setting [2]; greater than 79% under setting [3]; greater than 79% under setting [4]; greater than 79% under setting [5].
Consider `Nc1nc(NC2Cc3ccccc3N(Cc3cccc(Oc4ccc(Cl)cc4)c3)C2)c2cn[nH]c2n1` (centres unmarked) [Compound 164, N4-{1-[3-(4-chlorophenoxy)benzyl]-1,2,3,4-tetrahydroquinolin-3-yl}-1H-pyrazolo[3,4-d]pyrimidine-4,6-diamine], for which the inhibition at 10 µM is 50 to 79% under setting [1]; 50 to 79% under setting [2]; less than 50% under setting [3]; less than 50% under setting [4]; less than 50% under setting [5].
As for `Nc1nc(NC2CCN(S(=O)(=O)c3ccc4c(c3)OCCO4)c3ccccc3C2)c2cn[nH]c2n1` (centres unmarked) [Compound 165, N4-[1-(2,3-dihydro-1,4-benzodioxin-6-ylsulfonyl)-2,3,4,5-tetrahydro-1H-1-benzazepin-4-yl]-1H-pyrazolo[3,4-d]pyrimidine-4,6-diamine], the inhibition at 10 µM is, setting by setting: under setting [1], less than 50%; under setting [2], less than 50%; under setting [3], less than 50%; under setting [4], less than 50%; under setting [5], less than 50%.
For `Nc1nc(NC2CCN(S(=O)(=O)c3ccccc3)c3ccccc3C2)c2cn[nH]c2n1` (centres unmarked) [Compound 166, N^4-(1-(phenylsulfonyl)-2,3,4,5-tetrahydro-1H-benzo[b]azepin-4-yl)-1H-pyrazolo[3,4-d]pyrimidine-4,6-diamine], the inhibition at 10 µM is, setting by setting: under setting [1], less than 50%; under setting [2], less than 50%; under setting [3], less than 50%; under setting [4], less than 50%; under setting [5], less than 50%.
Consider `Nc1nc(NC2CCN(S(=O)(=O)c3ccsc3)c3ccccc3C2)c2cn[nH]c2n1` (centres unmarked) [Compound 167, N4-[1-(3-thienylsulfonyl)-2,3,4,5-tetrahydro-1H-1-benzazepin-4-yl]-1H-pyrazolo[3,4-d]pyrimidine-4,6-diamine], for which the inhibition at 10 µM by setting is: under setting [1], less than 50%; under setting [2], less than 50%; under setting [3], less than 50%; under setting [4], less than 50%; under setting [5], less than 50%.
With `Cc1cccc(S(=O)(=O)N2CCC(Nc3nc(N)nc4[nH]ncc34)Cc3ccccc32)c1` (centres unmarked) [Compound 168, N4-{1-[(3-methylphenyl)sulfonyl]-2,3,4,5-tetrahydro-1H-1-benzazepin-4-yl}-1H-pyrazolo[3,4-d]pyrimidine-4,6-diamine], the inhibition at 10 µM under setting [1] is less than 50%; the inhibition at 10 µM under setting [2] is less than 50%; the inhibition at 10 µM under setting [3] is less than 50%; the inhibition at 10 µM under setting [4] is less than 50%; the inhibition at 10 µM under setting [5] is less than 50%.
As for `Nc1nc(NC2CCN(S(=O)(=O)c3cccc(F)c3)c3ccccc3C2)c2cn[nH]c2n1` (centres unmarked) [Compound 169, N4-{1-[(3-fluorophenyl)sulfonyl]-2,3,4,5-tetrahydro-1H-1-benzazepin-4-yl}-1H-pyrazolo[3,4-d]pyrimidine-4,6-diamine], the inhibition at 10 µM by setting is: under setting [1], less than 50%; under setting [2], less than 50%; under setting [3], less than 50%; under setting [4], less than 50%; under setting [5], less than 50%.
Take `Nc1nc(NC2CCN(S(=O)(=O)c3ccc(Cl)c(C(F)(F)F)c3)c3ccccc3C2)c2cn[nH]c2n1` (centres unmarked) [Compound 170, N4-(1-{[4-chloro-3-(trifluoromethyl)phenyl]sulfonyl}-2,3,4,5-tetrahydro-1H-1-benzazepin-4-yl)-1H-pyrazolo[3,4-d]pyrimidine-4,6-diamine]: the inhibition at 10 µM runs as follows: under setting [1], less than 50%; under setting [2], greater than 79%; under setting [3], greater than 79%; under setting [4], less than 50%; under setting [5], 50 to 79%.
